Like-named read-outs stand apart in the source and are kept apart here. One block for each compound: values may come before it.
Legend:
[1] = cited from earlier work
[2] = tested on: the other eight P450 enzymes (isoforms other than CYP2C8); test: Nine-P450 cocktail inhibition in human liver microsomes, statements on the other P450 isoforms; format: in vitro ADME; conditions: human, pooled human liver microsomes; isoforms other than CYP2C8; HLMs
Method: (§1) The inhibitory potential of the five biflavonoids on the metabolism of nine P450 probe substrates was evaluated using previously developed methods with minor modifications. Biflavonoids were dissolved in methanol. The final concentration of methanol in the incubation mixture was 1.0% (v/v). We used these P450 probe substrates: phenacetin for CYP1A2, coumarin for CYP2A6, bupropion for CYP2B6, amodiaquine for CYP2C8, diclofenac for CYP2C9, omeprazole for CYP2C19, dextromethorphan for CYP2D6, chlorzoxazone for CYP2E1 and midazolam for CYP3A (Table 1). The incubation mixtures containing pooled human liver microsomes (HLMs, XTreme 200, XenoTech), P450 probe substrates, and inhibitor (0~20 µM) were pre-incubated at 37 °C for 5 min. The concentration range of the inhibitor varied (0, 0.002, 0.005, 0.02, 0.05, and 0.2 µM for CYP2C8; 0, 0.02, 0.05, 0.2, 0.5, and 2 µM for CYP2C9; 0, 0.5, 2, 5, 10, and 20 µM for other P450 isoforms). After pre-incubation, a reduced nicotinamide adenine dinucleotide phosphate (NADPH) generation system containing 1 unit/ml G6PDH, 1.3 mM β- nicotinamide adenine dinucleotide phosphate (β- NADP^+), 3.3 mM MgCl2, and 3.3 mM G6P was added to initiate a reaction, and further incubated for 10 min at 37 °C. The reaction was stopped by adding 50 μL of ice-cold acetonitrile containing 7 nM trimipramine (internal standard, IS). After centrifugation at 18,000 g (5 min, 4 °C), aliquots of supernatants were analyzed by LC–MS/MS (Shimadzu LCMS 8060 system, Shimadzu, Kyoto, Japan). All microsomal incubations were conducted in triplicate.
(§2) All metabolites and the IS were separated on a Kinetex XB-C18 column (100 × 2.10 mm, 2.6 μm, 100 Å; Phenomenex, Torrance, CA, USA) and analyzed using a Shimadzu LCMS 8060 triple-quadrupole mass spectrometer coupled with a Nexera X2 ultra high-performance liquid chromatography system (Shimadzu, Kyoto, Japan) equipped with an electrospray ionization interface. The mobile phase consisted of 0.1% formic acid in water (A) and 0.1% formic acid in acetonitrile (B). […] Electrospray ionization was performed in positive-ion mode at 4000 V or in negative-ion mode at −3500 V. The optimum operating conditions were determined as follows: vaporizer temperature, 300 °C; capillary temperature, 350 °C; collision gas (argon) pressure, 1.5 mTorr. Quantitation was conducted in selected reaction monitoring (SRM) modes with the precursor-to-product ion transition for each metabolite (Table 1 and Table 2).
(§3) We analyzed the data with Shimadzu LabSolution LC–MS software. The IC50 values were calculated by WinNonlin software (Pharsight, Mountain View, CA, USA). […]

other P450 isoforms = test: as above; format: in vitro ADME; conditions: inhibitor 5 μM; HLMs
Method: as §1, §2, §3

UGT1A6 = target: T1, UGT1A6 (Homo sapiens, UniProt P19224); test: Inhibition of UGT1A6 (N-acetylserotonin glucuronidation) in human liver microsomes; format: in vitro ADME; conditions: substrate N-acetylserotonin; HLMs; average ± standard error
T1 construct: tissue XenoTech XTreme 200; host or cells: pooled human liver microsomes
T1 sequence (P19224 27-532): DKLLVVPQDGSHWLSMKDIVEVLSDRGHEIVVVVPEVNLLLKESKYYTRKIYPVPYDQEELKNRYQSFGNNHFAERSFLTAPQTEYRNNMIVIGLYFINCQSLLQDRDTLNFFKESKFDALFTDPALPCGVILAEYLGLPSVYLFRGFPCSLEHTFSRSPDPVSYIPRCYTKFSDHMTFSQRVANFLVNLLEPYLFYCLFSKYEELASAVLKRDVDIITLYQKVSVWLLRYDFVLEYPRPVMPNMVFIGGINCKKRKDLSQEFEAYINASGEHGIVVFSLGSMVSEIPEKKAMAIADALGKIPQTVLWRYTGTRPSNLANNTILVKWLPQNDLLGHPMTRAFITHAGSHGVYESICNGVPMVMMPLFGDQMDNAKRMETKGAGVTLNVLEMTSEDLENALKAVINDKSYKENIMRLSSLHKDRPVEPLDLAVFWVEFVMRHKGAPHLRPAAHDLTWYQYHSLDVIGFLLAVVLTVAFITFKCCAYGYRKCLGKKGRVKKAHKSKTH
Method: (§4) The ability of selamariscina A to inhibit the metabolism of six UGT enzyme probe substrates was evaluated using previously developed methods with minor modifications. The microsomal incubation was performed by dividing the non-interactive substrate cocktail sets (set A included SN-38 for UGT1A1, CDCA for UGT1A3 and TFP for UGT1A4 while set B included N-SER for UGT1A6, MPA for UGT1A9 and NX for UGT2B7) (Table 2). In brief, HLMs (0.25 mg/mL) were activated by incubation in the presence of alamethicin (25 µg/mL) for 15 min on ice. After the addition of UGT probe substrates and inhibitor (0, 0.5, 2, 5, 20 and 50 μM), the incubation mixtures were pre-incubated at 37 °C for 5 min. […] After centrifugation at 18,000 g (5 min, 4 °C), aliquots of supernatants were analyzed by LC–MS/MS. […]
(§5) All metabolites and the IS were separated on a Kinetex XB-C18 column (100 × 2.10 mm, 2.6 μm, 100 Å; Phenomenex, Torrance, CA, USA) and analyzed using a Shimadzu LCMS 8060 triple-quadrupole mass spectrometer coupled with a Nexera X2 ultra high-performance liquid chromatography system (Shimadzu, Kyoto, Japan) equipped with an electrospray ionization interface. […] Quantitation was conducted in selected reaction monitoring (SRM) modes with the precursor-to-product ion transition for each metabolite (Table 1 and Table 2).
(§6) We analyzed the data with Shimadzu LabSolution LC–MS software. […]

[3] = tested on: other P450 isoforms (other than CYP2C8 and CYP2C9); test: Nine-P450 cocktail inhibition in human liver microsomes, statements on the other P450 isoforms; format: in vitro ADME; conditions: human, pooled human liver microsomes; inhibitor 0.5 μM; HLMs; isoforms other than CYP2C8 and CYP2C9; read-out: Inhibition of the other P450 isoform-specific activities
Method: as §1, §2, §3

[4] = tested on: CYP2C8 and CYP2C9 versus seven other P450s (CYP1A2, 2A6, 2B6, 2C19, 2D6, 2E1, 3A); test: as above; format: in vitro ADME; conditions: human, pooled human liver microsomes; amodiaquine and diclofenac activities versus seven other P450s
Method: as §1, §2, §3

UGT1A4 = target: T2, UGT1A4 (Homo sapiens, UniProt P22310); test: Inhibition of UGT1A4 (trifluoperazine glucuronidation) in human liver microsomes; format: in vitro ADME; conditions: substrate trifluoperazine; HLMs; average ± standard error
T2 construct: tissue XenoTech XTreme 200; host or cells: pooled human liver microsomes
T2 sequence (P22310 29-534): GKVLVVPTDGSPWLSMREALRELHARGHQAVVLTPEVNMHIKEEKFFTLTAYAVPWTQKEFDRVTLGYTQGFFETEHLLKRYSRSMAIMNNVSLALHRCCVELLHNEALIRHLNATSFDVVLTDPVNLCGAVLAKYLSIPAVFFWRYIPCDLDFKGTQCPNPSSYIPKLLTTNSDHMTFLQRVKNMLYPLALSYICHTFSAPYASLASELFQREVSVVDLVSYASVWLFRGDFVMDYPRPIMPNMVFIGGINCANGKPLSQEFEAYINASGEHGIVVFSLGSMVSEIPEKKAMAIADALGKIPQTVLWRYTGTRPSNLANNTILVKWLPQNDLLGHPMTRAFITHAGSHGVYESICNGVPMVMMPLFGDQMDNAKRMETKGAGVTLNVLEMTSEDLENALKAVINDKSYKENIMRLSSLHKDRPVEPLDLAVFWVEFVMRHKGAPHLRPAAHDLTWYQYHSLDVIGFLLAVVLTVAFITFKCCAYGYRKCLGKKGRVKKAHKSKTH
Method: as §4, §5, §6

Structure (SMILES): O=c1cc(-c2ccc(O)c(-c3c(O)cc(O)c4c(=O)cc(-c5ccc(O)cc5)oc34)c2)oc2cc(O)cc(O)c12 [amentoflavone]
Cmax ([1]; liposome-based Selaginella doderleinii Hieron extracts 200 mg/kg, read-out: Cmax after liposome-based extract): 0.22 µM | Cmax, times higher than control ([1]; liposome-based extracts 200 mg/kg versus control): 5.4 times | Maximum concentration in rat blood ([1]; single oral dose of Selaginella doderleinii Hieron extracts 200 mg/kg): 0.041 µM | Maximum concentration in rat blood ([1]; single oral dose of Selaginella doderleinii Hieron extracts 600 mg/kg): 0.063 µM

Structure (SMILES): CC(C)(O)c1ccccc1CC[C@@H](SCC1(CC(=O)O)CC1)c1cccc(/C=C/c2ccc3ccc(Cl)cc3n2)c1 [montelukast, reference compound]
IC50 at 10 min [2]: > 9.73 µM | Inhibition of the other six P450 isoforms (other P450 isoforms): negligible inhibition

IC50 (UGT1A6): 46.1 ± 11.7 µM | inhibition at 10 min, 0.5 µM [3]: ≤ 21.8% | IC50 (UGT1A4): 7.7 ± 1.9 µM
Structure (SMILES): O=C1CC(c2cc(-c3c(O)ccc4c(=O)cc(-c5ccc(O)cc5)oc34)c(O)cc2O)Oc2cc(O)cc(O)c21 (stereo not shown) [selamariscina A]
selectivity ratio at 10 min [4]: > 50

Reference: PMC7238120, “Strong and Selective Inhibitory Effects of the Biflavonoid Selamariscina A against CYP2C8 and CYP2C9 Enzyme Activities in Human Liver Microsomes” (Pharmaceutics, 2020)
